Assay [1] deals with LuxArray 1.04 luxCDABE gene fusions. The assay is described as follows: LuxArray 1.04 limonene stress in liquid culture. Format: cell-based, E. coli. To be noted: for upregulation of gene fusion: 80% saturated limonene. On the procedure: Microplates from −80° C. containing the LuxArray 1.04 E. coli strains were thawed and used to inoculate 100 μl LB medium supplemented with 100 μg/ml ampicillin in Costar#3595 flat bottomed 96-well microplates. Following overnight growth at 37° C., the plates were visually examined and any wells with little or no turbidity were recorded. Then these cultures were diluted by transfer of 15 μl to 135 μl LB medium in Costar #3595, flat bottom 96-well microplates and were moderately swirl shaken on an IKA Schuttler MTS 4 shaker at setting 400 for two hrs at 37° C. in a humidified box. Twenty μl of each these actively growing cultures were transferred to the corresponding well in sets of three microplates, one containing 80 μl of LB medium, another containing 80 μl of LB medium saturated with limonene at room temperature, and the third containing 40 μl of LB medium saturated with limonene and 40 μl of LB medium. An initial (zero time) reading was taken using an MLX microplate luminometer (Dynex) pre-warmed to 37° C. Then the plates were placed at 37° C. without shaking. Additional bioluminescent measurements were taken at 45, 90, and 135 minutes. To limit the number of microplates handled each day, LuxArray 1.04 microplates 1 to 5, microplates 6 to 10, microplates 11 to 15, and microplates […] were used on each of four different days.
The data were normalized to correct for growth inhibition caused by limonene on the basis of each individual day that data was collected. The bioluminescence (RLU) of each individual culture for each day of experimentation under each of the three conditions, were added to determine the daily array total RLU. These were used to find a daily normalization factor (DNF) as follows:
DNF=Daily total array signal (time zero, LB control)/Daily total array signal (time x, condition y)
Each measurement from the corresponding day, time point, and condition was multiplied by DNF to yield a normalized signal. The data from wells that were scored to have little or no growth were not used in further analysis. The normalized data were analyzed with GeneSpring (Silicon Genetics) software, which averaged the signal from each of the duplicate cultures for each reporter gene fusion.
Thus, patterns of gene expression from the 80% saturated limonene in LB medium were further examined. […] These lists were examined and gene fusions with very low normalized RLU values (<0.012 RLU) at all conditions were eliminated. […] The designation of “>2×” is given for upregulation while “*” is listed if the expression was less than 2 fold increased. At 45 minutes, the expression of fourteen gene fusions was increased; none of these was increased 3 fold or higher. At 90 minutes, 37 gene fusions were induced; these included all but one of the gene fusions observed at 45 minutes. […] These were fusions of the luxCDABE reporter to the promoter regions of uhpT (3.8×), nirB (3.7×) and narK (3.6×). At 135 minutes, 39 gene fusions were induced, which included 13 fusions not observed at 45 or 90 minutes.

The test system of assay [2] is uhpT-luxCDABE gene fusion (strain DPD3228). Nature of the assay: verification of uhpT-lux upregulation by limonene. Format: cell-based, E. coli. The settings on record: late response, maximal at highest concentration, detected at 40% or 20% of saturation. Here is the method:
E. coli strain DPD3228 is identical to lux-a.pk034.b9 the strain containing the uhpT-luxCDABE gene fusion. This strain was grown overnight at 37° C. in LB medium containing 100 μg/ml ampicillin and diluted the following day into LB medium and grown to log phase at 37° C. 20 μl aliquots of this culture were added to 80 μl of LB medium saturated with limonene, to 80 μl of a series of two fold dilutions into LB medium of LB saturated with limonene, and to 80 μl of LB medium. Light production was measured in a Luminoskan Ascent (Labsystems) microplate luminometer at 37° C. […] Similar to the initial LuxArray observations, a late response to the presence of limonene was observed. This response was maximal at the highest concentration of limonene tested, but was also detected when limonene was present at 40% or 20% of saturating amounts in LB medium.

Take `C=C(C)[C@H]1CC=C(C)CC1` [limonene]: the “upregulation of gene fusion” value in assay [1] (katG-lux, 135 minutes) stood at 4.1 ×; in assay [1] (narK-lux, 90 minutes) it was 3.6 ×; in assay [1] (nirB-lux, 90 minutes), 3.7 ×; in assay [1] (nirB-lux, 135 minutes), 4.1 ×; in assay [1] (uhpT-lux, 90 minutes), 3.8 ×; in assay [1] (uhpT-lux, 135 minutes), 7.7 ×. In addition, the “upregulation of gene expression” value in assay [1] (whole LuxArray 1.04, 40% saturated limonene in LB medium) is recorded as “little to no upregulation”. In addition, the upregulation of bioluminescence result in assay [2] is given as “upregulation of bioluminescence from this strain by limonene was confirmed”.

These data come from patent US6716582B2 (priority 2000, dated 2004).
